Structures can show the parent of a compound that is named as a salt.
How the values were obtained:
Assay type in all cases: in vivo
[1] = system: Yellow Foxtail (Setaria pumila); assay: Control of Yellow Foxtail with glyphosate-isopropylamine salt, visual weed control; settings: glyphosate-isopropylamine salt 0.75% a.i. alone, adjuvant 0
Protocol: (§1) Spray Protocol: A lab spray trial was conducted to evaluate the effect of the silane compositions in accordance with the present technology on the performance of various herbicides.
(§2) Target weeds were grown from seed, under controlled conditions in a “Caron Model 7301-50-2” Growth chamber using simulated full sunlight. Sprays were applied to the target weeds at the 4-6 leaf growth stage using a DeVries Generation 4—Research Track Sprayer with a T-Jet 8002E nozzle at an equivalent spray volume of 100 L/ha.
Glyphosate-isopropylamine salt was applied at 0.75% a.i. to Yellow foxtail at a 15 cm growth-stage. The spray mixtures were applied either as herbicide alone, or in combination with the silane compositions SIL-6, SIL-9 and SIL-12 at an equivalent spray volume of 100 L/ha. A visual assessment of weed control was made at 7 and 14 Days After Treatment (DAT). The application method is the same as previously described.

[2] = system: red banded stink bug (Piezodorus guildinii); assay: Field trial: control of stink bug on green beans with Cefanol acephate plus adjuvant; settings: Cefanol acephate 0.50 kg/ha alone
Protocol: A composition of the present invention (SIL-8) was compared to a conventional trisiloxane alkoxylate (TSA-2) for the improvement of the insecticide acephate in the control of stink-bug.
The experiment was conducted with a randomized block design, with 6 treatments (including the untreated check) and 4 repetitions. Each plot was of 12 m^2 in area. The data obtained were subjected to analysis of variance and the average of the treatments compared using the Tukey test to 5% probability test.
During the trial there were […] evaluation periods: 0, 3, 5 and 7 Days After Application (DAA), for determining the number of red banded stink bugs in each plot evaluated.
The treatments were applied using a CO2 pressurized Backpack sprayer, with 4 nozzles spaced 50 cm between each one. Nozzles type XR11002 (Flat Fan) and a spray volume 150 L·ha.

[3] = system: Redroot pigweed (Amaranthus retroflexus, EPPO Code: AMARE); assay: Effect of adjuvant on performance of 2,4-D Amine, lab spray trial, visual weed control; settings: 2,4-D amine 0.25 wt % alone, no adjuvant
Protocol: as §1, §2
SIL-8 was compared to a conventional trisiloxane alkoxylate (TSA-1) as a spray adjuvant, to improve the performance of 2,4-D Amine (herbicide) on AMARE. The spray protocol is described above. The 2,4-D Amine was applied at a sub lethal dose (25% of label rate) to show the impact of the adjuvant on performance. Assessment of weed control was made by a visual observation as compared to an untreated check.

O=C(O)CNCP(=O)(O)O [Glyphosate, Glyphosate-isopropylamine salt]
Weed control of Yellow foxtail, 7 DAT [1]: 20 | Weed control of Yellow foxtail, 14 DAT [1]: 92

COP(=O)(NC(C)=O)SC (centres unmarked) [Acephate]
Eff. %, 1 DAA [2]: 76.0% | Eff. %, 3 DAA [2]: 60.0% | Eff. %, 5 DAA [2]: 45.5% | Eff. %, 7 DAA [2]: 63.6% | Number of red banded stink bug, 1 DAA [2]: 0.5 b | Number of red banded stink bug, 3 DAA [2]: 0.7 b | Number of red banded stink bug, 5 DAA [2]: 0.5 a | Number of red banded stink bug, 7 DAA [2]: 0.3 b | Eff. %, 0 DAA ([2]; 0 DAA (initial)): 0.0% | Number of red banded stink bug, 0 DAA ([2]; 0 DAA (initial)): 1.8 a

CNC.O=C(O)COc1ccc(Cl)cc1Cl [2,4-D amine, 2,4-D Amine]
Weed control of AMARE, 7-DAT [3]: 46% | Weed control of AMARE, 14-DAT [3]: 55%

Source: US20250120394A1, “SILANE SURFACTANT FOR AGRICULTURAL USE” (MOMENTIVE PERFORMANCE MATERIALS INC., priority 2023, published 2025)
